Reference: US8940717B2, “Plant disease controlling composition and method for controlling plant disease” (Sumitomo Chemical Company, Limited, priority 2010, dated 2015)
Where two headings read alike, the source gives them in different places.

Tested on: gray mold fungus (Botrytis cinerea)
Experiment: Cucumber leaf disk preventive test against gray mold
Type: in vivo
Settings: for pest or weed control at 0.5 ppm / pest or weed control at 5 ppm: Botrytis cinerea, foliar, 96 h, read-out: preventive value (%)
Experimental: To a SUS beaker are added 30 parts of the present compound (racemate), 5 parts of Soprophor FLK (polyoxyethylene tristyrylphenyl ether phosphate, produced by Rhodia Nicca Ltd.), 65 parts of ion-exchange water and 150 parts of glass beads (1.0 mm diameter). The mixture is subjected to grinding at a velocity of 1000 rpm with cooling to 10° C., and thereafter the glass beads are separated, so as to obtain a flowable formulation comprising the present compound (racemate).
True leaf of cucumber is punched out with cork borer to 13 mm in diameter to prepare a leaf disk. In 24 well microwell plate that is dispensed with 1 ml 0.8% water agar, the leaf disk is placed such that the upper side of the leaf is in an upward direction. Thereto is added 20 micro liter a testing solution prepared by mixing the flowable formulation of the present compound (racemate) prepared by the above procedure and a commercial wettable powder of fludioxonil or chlorothalonil to a predetermined concentration to treat the leaf disk.
After confirming that the testing medical solution is dried, conidium of gray mold fungus (Botrytis cinerea) is suspended into potato dextrose broth (DIFCO) in a density of about 10^5 conidium/mL and is then subjected to a spray inoculation. After leaving to stand the leaf disk in a growth chamber set up at 15° C. for four days, an onset area on the leaf is measured and then calculated an onset area rate (hereinafter, referred to as an onset area rate of treated group).
The same operation is carried out with 20 micro liter water instead of 20 micro liter a testing medicine solution to calculate an onset area rate (hereinafter, referred to an onset area rate of non-treated group).
A preventive value is calculated from the above onset area rate of treated group and the onset area rate of non-treated group by the following equation: Preventive value (%)=100×(A−B)/A
A: an onset area rate of treated group
B: an onset area rate of non-treated group
The same operations as described in Test Example 1 are carried out with cyflufenamid, diethofencarb, dithianon, fluazinam, flusulfamide, fosetyl-Al, metrafenon, penflufen, phthalide, sedaxane, spiroxamine or tebufloquin, instead of fludioxonil or chlorothalonil, so as to calculate respective preventive values.
Also for comparison, the same operations as described in Test Example 1 are carried out with the exception that the testing medicine solution is substituted with a predetermined concentration of each dimethyl sulfoxide solution of the present compound (racemate), cyflufenamid, diethofencarb, dithianon, fluazinam, flusulfamide, fosetyl-Al, metrafenon, penflufen, phthalide, sedaxane, spiroxamine or tebufloquin, so as to calculate respective preventive values.
For comparison, the same operations as described in Test Example 1 are carried out with the exception that the testing medicine solution is substituted with a predetermined concentration of each dimethyl sulfoxide solution of fludioxonil or chlorothalonil, so as to calculate a preventive value.

[1] = partner fungicide alone 0.5 ppm, dimethyl sulfoxide solution, cucumber leaf disk, 15° C., four days
[2] = partner fungicide alone 5.0 ppm, dimethyl sulfoxide solution, cucumber leaf disk, 15° C., four days

SMILES | preventive value (%) [1] [%] | preventive value (%) [2] [%] | pest or weed control at 0.5 ppm [1] [%] | pest or weed control at 5 ppm [2] [%] | other results
Cn1cc(C(=O)Nc2ccccc2C2CC2C2CC2)c(C(F)F)n1 (stereo not shown) [sedaxane] | 20 | 40 |  |  | 
N#Cc1sc2c(=O)c3ccccc3c(=O)c=2sc1C#N [dithianon] |  |  | 15 | 20 | 
N#Cc1c(Cl)c(Cl)c(Cl)c(C#N)c1Cl [chlorothalonil] |  |  | 15 | 45 | 
O=C(Cc1ccccc1)N/C(=N\OCC1CC1)c1c(C(F)(F)F)ccc(F)c1F [cyflufenamid] |  |  | 10 | 15 | 
O=C1OCc2ccccc21 [phthalide] |  |  | 10 | 15 | 
COc1cc(C)c(C(=O)c2c(OC)ccc(Br)c2C)c(OC)c1OC [metrafenon] | 10 | 15 |  |  | 
CCCN(CC)CC1COC2(CCC(C(C)(C)C)CC2)O1 (stereo not shown) [spiroxamine] |  |  | 10 | 15 | 
Cc1nn(C)c(F)c1C(=O)Nc1ccccc1C(C)CC(C)C (stereo not shown) [penflufen] | 10 | 15 |  |  | 
O=[N+]([O-])c1ccc(NS(=O)(=O)c2ccc(Cl)c(C(F)(F)F)c2)c(Cl)c1 [flusulfamide] |  |  |  |  | pest or weed control at 0.5 ppm: 15%; pest or weed control at 5 ppm: 20%
CC(=O)Oc1c(C)c(C)nc2c(F)cc(C(C)(C)C)cc12 [tebufloquin] | 10 | 15 |  |  | 
CCO[PH](=O)O [fosetyl-Al] | 15 | 20 |  |  | 
O=[N+]([O-])c1cc(C(F)(F)F)c(Cl)c([N+](=O)[O-])c1Nc1ncc(C(F)(F)F)cc1Cl [fluazinam] |  |  | 47 | 52 | 
N#Cc1c[nH]cc1-c1cccc2c1OC(F)(F)O2 [fludioxonil] |  |  |  |  | pest or weed control at 0.5 ppm: 45%; pest or weed control at 5 ppm: 57%
CCOc1ccc(NC(=O)OC(C)C)cc1OCC [diethofencarb] |  |  | 0 | 0 | 
